Results on 18 molecules are retold here after patent publication US4006232A, “Therapeutic method of treating cardiac arrhythmias utilizing 3-substituted diphenylhydantoins” (Miles Laboratories, Inc., priority 1974, dated 1977).

≈ marks a conversion by molar mass, not a printed value. Structures can show the parent of a compound that is named as a salt. Where two headings read alike, the source gives them in different places.

The test system of data set [1] is ventricular rate and rhythm. Description: Antiarrhythmic activity: protection against chloroform-induced ventricular arrhythmia in mice (Lawson). In kind it is in vivo. The settings on record: Mus musculus, ip, 10 min; intraperitoneal, 10 min before chloroform; protected = ventricular rate not exceeding 100 contractions in 30 s; groups of 5 mice; parentheses = 95% confidence limits; read-out: ED50 (95% CL). As to the method: The antiarrhythmic activity of the compounds of this invention, specifically those enumerated in the Summary and presented as the above examples, was compared to that of diphenylhydantoin (I), 3-(3-diethylaminopropyl)- 5,5-diphenylhydantoin (II), 3-[3-(1-piperidyl)-propyl]- 5,5-diphenylhydantoin (III), and 3-(3-morpholinopropyl)-5,5-diphenylhydantoin (IV).
(§1) The tests compounds were administered to groups consisting of 5 mice in varying intraperitoneal doses. Ten minutes after administration of a given dose of a compound, a mouse was transferred to a covered 300 ml glass beaker which contained a wad of cotton saturated with about 20 ml of chloroform. The animal was observed closely and removed from the beaker immediately after respiratory arrest. The heart was quickly exposed by making an incision through the abdomen, diaphragm, thorax and pericardium for visual inspection of ventricular rate and rhythm. Ventricular contractions were counted for 30 seconds. According to the procedure reported by Lawson (J. Pharmacol. Exp. Therap., 160:22 [1968]), animals with a ventricular rate not exceeding 100 contractions during the 30 second observation period were considered protected. Results obtained with each dose were used to calculate the mean effective doses (ED50) after the method of Litchfield and Wilcoxon (J. Pharmacol. Exp. Therap. 96: 99-113 [ 1949]).
In Table A, the compounds of this invention are listed by the arabic numeral assigned in the Summary and the above corresponding Example Number; the Roman numerals refer to the compounds so designated above in this Example and in the Description of the Prior Art.

Another data set in a line: in vivo. In kind it is in vivo. To be noted: intraperitoneal; for MLD (Minimum Lethal Dose): deaths before exposure to chloroform; for selectivity ratio: mouse, in vivo, ip, calculated with Minimum Lethal Dose data, read-out: MLD/ED50 (Therapeutic Index). As to the method: as §1
For the next data set, the system named is Guinea pig atria. Description: Refractory period in isolated atria, electrical stimulation (Dawes). To be noted: Cavia porcellus, read-out: EC50 (amount necessary for increasing the minimum interval by 50 percent over control values). The procedure: The effect of the compounds of this invention on the refractory period in the atrium was studied and compared to that hydantoin according to the procedure described by Dawes (Brit. J. Pharmacol., 1: 90, [1946]).
Guinea pig atria, suspended in an isolated organ chamber, were stimulated electrically at increasing frequencies while the resulting mechanical contractions were recorded. The minimum interval between two consecutive stimuli necessary for eliciting a mechanical response was determined before and after incubation with varying concentrations of the test compounds. The minimum interval thus determined is an indirect measure of the refractory period in the tissue, and a prolongation of this interval indicates an increased refractory period. From the increase in minimum interval observed with each concentration, the amount necessary for increasing the interval by 50 percent over control values (EC50) was determined for each compound.

Another data set deals with heart. To be noted: prior art; cited from earlier work.
The conditions of data set [2]: prior art, cited from earlier work.
The conditions of data set [3]: extent of activity of DPH; cited from earlier work.
Setting [4] is: guinea pig atria, electrical stimulation, indirect measure of refractory period.

With `Cc1ccc(C2(c3ccc(C)cc3)NC(=O)N(CCCN3CCC(c4ccccc4)CC3)C2=O)cc1` [Compound 13, 3-[3-(4-phenyl-1-piperidyl)propyl]-5,5-di(4-tolyl)hydantoin], in data set [1], the ED50 turned out to be 4.5 mg/kg. Further, in the data set “in vivo”, the “MLD (Minimum Lethal Dose)” value is greater than 100 mg/kg and the selectivity ratio was greater than 22.2. In the data set with Guinea pig atria (setting [4]), the EC50 is greater than 10 µg/mL.
`O=C1NC(c2ccccc2)(c2ccccc2)C(=O)N1CCCN1CCCCC1` [III, 3-[3(1-piperidyl)propyl]-5,5-diphenylhydantoin, reference compound]: in data set [1], the ED50 was 19 mg/kg. In the data set “in vivo”, the “MLD (Minimum Lethal Dose)” value stood at 31 mg/kg and the selectivity ratio is 1.63.
As for `COc1ccc(C2(c3ccc(OC)cc3)NC(=O)N(CCCN3CCC(c4ccccc4)CC3)C2=O)cc1.Cl` [Compound 10, 3-[3-(4-phenyl-1-piperidyl)propyl]-5,5-di(4-methoxyphenyl)hydantoin hydrochloride], the ED50 in data set [1] came out at 34 mg/kg. Moreover, in the data set “in vivo”, the “MLD (Minimum Lethal Dose)” value is on record as greater than 178 mg/kg and the selectivity ratio was greater than 5.24. For the same molecule, the EC50 with Guinea pig atria (setting [4]) worked out at 6.4 µg/mL.
Taken in the same sequence, the figures for `Nc1ccc(C2(c3ccccc3)NC(=O)N(CCCN3CCC(c4ccccc4)CC3)C2=O)cc1` (centres unmarked) [Compound 15, 3-[3-(4-phenyl-1-piperidyl)propyl]-5-(4-aminophenyl)-5-phenylhydantoin] were 3.4 mg/kg, greater than 100 mg/kg, greater than 29.4 and 3.7 µg/mL (≈ 7.9 µM).
Taken in the same sequence, the figures for `Cc1ccc(C2(c3ccccc3)NC(=O)N(CCCN3CCC(c4ccccc4)CC3)C2=O)cc1.O=C(O)/C=C\C(=O)O` (centres unmarked) [Compound 12, 3-[3-(4-phenyl-1-piperidyl)propyl]-5-phenyl-5-(4-tolyl)hydantoin maleate] were 19.5 mg/kg, greater than 100 mg/kg, greater than 5.13 and 4.8 µg/mL.
Taken in the same sequence, the figures for `CC(C)(C)NCC(O)CN1C(=O)NC(c2ccccc2)(c2ccccc2)C1=O.Cl` (centres unmarked) [Compound 6, 3-(3-t-butylamino-2-hydroxypropyl)-5,5-diphenylhydantoin hydrochloride] were 9.4 mg/kg, 100 mg/kg, 10.6 and 1.5 µg/mL.
In the case of `O=C(O)/C=C\C(=O)O.O=C1NC(c2ccccc2)(c2ccccc2)C(=O)N1CCCN1CCN(c2ccccc2)CC1` [Compound 1, 3-[3-(4-phenyl-1-piperazinyl)propyl]-5,5-diphenylhydantoin maleate], in data set [1], the ED50 came to 16.4 mg/kg. For the same molecule, in “in vivo”, the “MLD (Minimum Lethal Dose)” value is reported as greater than 160 mg/kg and the selectivity ratio was greater than 9.77. For the same molecule, the EC50 with Guinea pig atria (setting [4]) is 4.4 µg/mL.
Regarding `O=C1NC(c2ccccc2)(c2ccccc2)C(=O)N1CCCN1CCOCC1` [IV, 3-(3-morpholinopropyl)-5,5-diphenylhydantoin, reference compound], the ED50 in data set [1] came to 76 mg/kg. Also, in the data set “in vivo”, the “MLD (Minimum Lethal Dose)” value worked out at 178 mg/kg and the selectivity ratio is 2.34.
With `O=C1NC(c2ccccc2)(c2ccccc2)C(=O)N1CCCN1CCC(c2ccccc2)CC1` [Compound 2, 3-[3-(4-phenyl-1-piperidyl)propyl]-5,5-diphenylhydantoin], the ED50 in data set [1] came out at 13.5 mg/kg. Further, in the data set “in vivo”, the “MLD (Minimum Lethal Dose)” value amounted to 320 mg/kg and the selectivity ratio is 23.7. In the data set with Guinea pig atria (setting [4]), the EC50 was found to be 1.1 µg/mL (≈ 2.43 µM).
Take `O=C1NC(=O)C(c2ccccc2)(c2ccccc2)N1` [I, 5,5-diphenyl-2,4-imidazolidinedione]: the ED50 in data set [1] is 394 mg/kg. In addition, the “MLD (Minimum Lethal Dose)” value in “in vivo” amounted to 1000 mg/kg. Also, the EC50 in the data set with Guinea pig atria (setting [4]) came out at 20 µg/mL (≈ 79.3 µM). Further, in the data set with heart, the “action on ventricular arrhythmias induced by digitalis” value is recorded as “antagonize ventricular arrhythmias induced by digitalis”, the atrio-ventricular nodal conduction result is “enhances atrio-ventricular nodal conduction”, the effective refractory period entry is given as “reduces the effective refractory period” and the ventricular automaticity result was “depresses ventricular automaticity”. For the same molecule, the “side effects of large doses” value in data set [2] (large doses) was “atrio-ventricular blockage, bradycardia, or even cardiac arrest”. The untoward side effects result in data set [2] is “dizziness, nausea, emesis, nystigmus, and ataxia”.
`O=C1NC(c2ccccc2)(c2ccc([N+](=O)[O-])cc2)C(=O)N1CCCN1CCC(c2ccccc2)CC1` (centres unmarked) [Compound 14, 3-[3-(4-phenyl-1-piperidyl)propyl]-5-(4-nitrophenyl)-5-phenylhydantoin]: the median effective dose (ED50) in data set [1] was 10.5 mg/kg. Moreover, in “in vivo”, the “MLD (Minimum Lethal Dose)” value was greater than 100 mg/kg and the selectivity ratio is greater than 9.52. Besides, the EC50 with Guinea pig atria (setting [4]) turned out to be 8.3 µg/mL (≈ 16.6 µM).
Taken in the same sequence, the figures for `Cl.O=C1NC(c2ccc(Cl)cc2)(c2ccc(Cl)cc2)C(=O)N1CCCN1CCC(c2ccccc2)CC1` [Compound 8, 3-[3-(4-phenyl-1-piperidyl)propyl]-5,5-di(4-chlorophenyl)hydantoin hydrochloride] were 75 mg/kg, greater than 178 mg/kg, greater than 2.28 and greater than 10 µg/mL.
Regarding `Cl.O=C1NC(c2ccccc2)(c2ccccc2)C(=O)N1CCCN1CCC(O)(c2ccccc2)CC1` [Compound 5, 5,5-diphenyl-3-[3-(4-hydroxy-4-phenyl-1-piperidyl)propyl]hydantoin hydrochloride], in data set [1], the ED50 was 5.8 mg/kg. For the same molecule, in the data set “in vivo”, the “MLD (Minimum Lethal Dose)” value is reported as 31 mg/kg and the selectivity ratio is 5.35. Moreover, the EC50 in the data set with Guinea pig atria is greater than 10 µg/mL.
Taken in the same sequence, the figures for `Cc1ccc(C2(c3ccc(C)cc3)NC(=O)N(CCCN3CCC(O)(c4ccccc4)CC3)C2=O)cc1` [Compound 18, 3-[3-(4-hydroxy-4-phenyl-1-piperidyl)propyl]-5,5-di-(4-tolyl)hydantoin] were 24 mg/kg, greater than 100 mg/kg, greater than 4.17 and 1.9 µg/mL (≈ 3.82 µM).
For the molecule `CCN(CC)CCCN1C(=O)NC(c2ccccc2)(c2ccccc2)C1=O` [II, 3-(3-diethylaminopropyl)-5,5-diphenylhydantoin, reference compound], the ED50 in data set [1] came to 14 mg/kg. Also, in the data set “in vivo”, the “MLD (Minimum Lethal Dose)” value came to 56 mg/kg and the selectivity ratio is 4.
On to `Cl.O=C1NC(c2ccccc2)(c2ccc(Br)cc2)C(=O)N1CCCN1CCC(c2ccccc2)CC1` (centres unmarked) [Compound 11, 3-[3-(4-phenyl-1-piperidyl)propyl]-5-(4-bromophenyl)-5-phenylhydantoin hydrochloride], for which the ED50 in data set [1] stood at 33.5 mg/kg. Further, in the data set “in vivo”, the “MLD (Minimum Lethal Dose)” value is reported as greater than 100 mg/kg and the selectivity ratio is greater than 2.98. For the same molecule, the EC50 with Guinea pig atria (setting [4]) was determined as 4 µg/mL.
Take `Nc1ccc(C2(c3ccccc3)NC(=O)NC2=O)cc1` (centres unmarked) [5-(4-aminophenyl)-5-phenylhydantoin]: the “activity relative to DPH” value in data set [3] is 50%.
Consider `O=C1NC(c2ccccc2)(c2ccccc2)C(=O)N1CCN1CC=C(c2ccccc2)CC1` [Compound 4, 5,5-diphenyl-3-[2-(4-phenyl-1,2,3,6-tetrahydropyridyl)ethyl]hydantoin hydrochloride], for which the ED50 in data set [1] worked out at 96 mg/kg. In the data set “in vivo”, the “MLD (Minimum Lethal Dose)” value is greater than 178 mg/kg and the selectivity ratio is greater than 1.85. Also, the EC50 with Guinea pig atria was found to be 5.7 µg/mL.
